{"source": "paper PMC7450057", "about": "“Enhancing intracellular accumulation and target engagement of PROTACs with reversible covalent chemistry” (Nature Communications, 2020)", "key": {"[1]": {"test_system": "BTK C481S mutant", "details": "cited from earlier work"}, "[2]": {"test_system": "MOLM-14 cells", "experiment": "AlamarBlue cell viability assay, MOLM-14", "details": "for Cell viability, MOML-14: Supplementary Figure 7, replicates", "procedure": "The IC50 was calculated using GraphPad Prism software with a four-parameter dose-response curve fit."}, "[3]": {"test_system": "Mino", "experiment": "IC50 in MCL cell lines (Supplementary Table 2), Mino", "details": "Mino; triplicates"}, "[4]": {"test_system": "Rec-1", "experiment": "IC50 in MCL cell lines (Supplementary Table 2), Rec-1", "details": "for Cell Viability (%): Rec-1 cells, replicate wells"}, "[5]": {"test_system": "Jeko-1", "experiment": "IC50 in MCL cell lines (Supplementary Table 2), Jeko-1", "details": "for Cell Viability (%): Jeko-1 cells, replicate wells"}, "[6]": {"test_system": "Maver-1", "experiment": "IC50 in MCL cell lines (Supplementary Table 2), Maver-1", "details": "Maver-1; triplicates"}, "[7]": {"biological_target": "T1, NanoLuc-CRBN fusion (Homo sapiens, UniProt Q96SW2)", "T1 construct": "host or cells: HEK 293T/17", "T1 sequence (Q96SW2 whole entry, the tested form may be a part)": "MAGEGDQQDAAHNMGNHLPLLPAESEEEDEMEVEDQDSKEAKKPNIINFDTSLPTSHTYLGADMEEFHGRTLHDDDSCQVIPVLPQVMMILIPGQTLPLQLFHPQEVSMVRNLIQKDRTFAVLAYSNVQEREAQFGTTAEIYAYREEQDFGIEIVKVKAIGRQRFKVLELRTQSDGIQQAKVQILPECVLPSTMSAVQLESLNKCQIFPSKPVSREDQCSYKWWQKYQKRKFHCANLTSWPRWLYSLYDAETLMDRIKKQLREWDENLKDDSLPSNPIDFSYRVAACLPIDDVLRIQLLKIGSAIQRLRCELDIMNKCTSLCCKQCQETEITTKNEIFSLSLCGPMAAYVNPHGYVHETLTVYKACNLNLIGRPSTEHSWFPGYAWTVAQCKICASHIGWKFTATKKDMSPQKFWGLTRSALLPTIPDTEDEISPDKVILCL", "T1 sequence (Q16531 whole entry partner, the tested form may be a part)": "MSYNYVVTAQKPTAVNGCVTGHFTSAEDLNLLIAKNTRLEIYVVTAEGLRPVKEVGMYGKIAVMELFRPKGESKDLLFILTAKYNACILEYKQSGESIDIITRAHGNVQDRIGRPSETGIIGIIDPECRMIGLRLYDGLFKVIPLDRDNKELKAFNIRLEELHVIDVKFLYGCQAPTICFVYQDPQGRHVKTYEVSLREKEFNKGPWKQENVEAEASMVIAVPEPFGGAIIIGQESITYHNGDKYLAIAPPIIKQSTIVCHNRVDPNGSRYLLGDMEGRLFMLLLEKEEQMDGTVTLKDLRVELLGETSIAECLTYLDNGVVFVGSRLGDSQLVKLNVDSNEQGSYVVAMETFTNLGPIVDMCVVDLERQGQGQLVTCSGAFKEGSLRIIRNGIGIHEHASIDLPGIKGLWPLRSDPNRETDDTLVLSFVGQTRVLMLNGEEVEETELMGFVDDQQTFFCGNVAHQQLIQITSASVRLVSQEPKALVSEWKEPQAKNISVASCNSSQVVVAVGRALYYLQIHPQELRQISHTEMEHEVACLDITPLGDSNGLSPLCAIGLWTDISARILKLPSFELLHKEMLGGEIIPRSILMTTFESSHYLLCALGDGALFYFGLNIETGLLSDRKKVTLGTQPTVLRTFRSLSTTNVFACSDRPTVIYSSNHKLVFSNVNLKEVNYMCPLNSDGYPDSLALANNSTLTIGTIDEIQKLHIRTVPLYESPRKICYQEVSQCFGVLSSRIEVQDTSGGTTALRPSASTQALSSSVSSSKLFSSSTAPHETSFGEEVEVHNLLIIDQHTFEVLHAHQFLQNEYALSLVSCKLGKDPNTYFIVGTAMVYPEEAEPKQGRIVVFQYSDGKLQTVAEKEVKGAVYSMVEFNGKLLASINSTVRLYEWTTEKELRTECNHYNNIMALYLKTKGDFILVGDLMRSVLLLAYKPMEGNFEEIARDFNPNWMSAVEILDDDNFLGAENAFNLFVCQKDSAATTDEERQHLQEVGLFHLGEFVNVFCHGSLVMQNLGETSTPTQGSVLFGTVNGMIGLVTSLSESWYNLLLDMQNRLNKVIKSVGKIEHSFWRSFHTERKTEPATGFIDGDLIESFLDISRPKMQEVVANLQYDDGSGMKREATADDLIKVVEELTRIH", "experiment": "NanoBRET CRBN in-cell target engagement assay", "assay_type": "cell-based", "details": "Figure 3h, replicates", "experimental": "The target engagement assay for BTK or CRBN was from Promega (BTK kit, Cat. No. N2500; CRBN kit, Cat. No. CS1810C136) and was performed according to the manufacture’s instruction with some modifications. […] After 2 h incubation, the 3X Nano-Glo® Substrate with NanoLuc® extracellular inhibitor were added to cells and developed for 3 min at room temperature. BRET signals were collected using a BioTek SYNERGY H1 microplate reader equipped with a 450/80-nm BP filter for donor emission and a 610-nm LP filter for acceptor emission. BRET Ratio was calculated with the equation: [(Acceptor sample/Donor sample)–(Acceptor no tracer control/Donor no tracer control)] × 1000. The IC50 of the compound against its BTK or CRBN tracer was calculated using GraphPad Prism software."}, "[8]": {"test_system": "truncated Cereblon protein", "experiment": "CRBN binding assay (fluorescence quenching)", "details": "for Fluorescence Intensity: Supplementary Figure 11, replicates", "experimental": "The Kd values of compounds to CRBN were measured based on fluorescence quenching after compounds binding to CRBN. […] All the compounds were dissolved in DMSO (10 mM) as stock solutions. The final drug concentration is 100 nM. […] Fluorescence intensity values for control wells (assay buffer only) were subtracted from each data point prior to analysis. The Kd was calculated using GraphPad Prism with the following equation curve fit. I=I0−If×Kd/P0+Kd+If"}, "[9]": {"biological_target": "BTK (Homo sapiens, UniProt Q06187)", "sequence (Q06187 whole entry)": "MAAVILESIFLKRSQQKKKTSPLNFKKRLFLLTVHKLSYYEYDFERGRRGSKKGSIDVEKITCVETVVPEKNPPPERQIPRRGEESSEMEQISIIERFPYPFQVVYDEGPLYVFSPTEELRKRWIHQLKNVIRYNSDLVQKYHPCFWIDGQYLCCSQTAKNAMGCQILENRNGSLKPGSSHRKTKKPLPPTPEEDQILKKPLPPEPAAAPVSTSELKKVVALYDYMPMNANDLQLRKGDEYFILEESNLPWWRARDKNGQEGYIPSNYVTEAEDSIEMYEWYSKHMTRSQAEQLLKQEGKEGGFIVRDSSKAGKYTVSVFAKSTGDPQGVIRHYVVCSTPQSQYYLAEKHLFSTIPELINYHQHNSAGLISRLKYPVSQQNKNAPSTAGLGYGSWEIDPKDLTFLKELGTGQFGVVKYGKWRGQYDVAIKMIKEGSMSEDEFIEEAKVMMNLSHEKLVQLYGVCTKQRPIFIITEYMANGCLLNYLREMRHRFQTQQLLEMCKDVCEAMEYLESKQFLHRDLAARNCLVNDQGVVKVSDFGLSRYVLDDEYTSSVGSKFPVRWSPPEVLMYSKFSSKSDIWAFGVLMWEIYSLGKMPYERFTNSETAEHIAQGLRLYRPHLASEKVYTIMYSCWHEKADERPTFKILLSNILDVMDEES", "experiment": "BTK degradation in MOLM-14 cells (western blot)", "assay_type": "cell-based", "parameters": "endogenous in cells; host or cells: MOLM-14"}}, "note": "pIC50, pKd: −log10 of the molar value. Where “and” joins values, the source holds several entries; their conditions need not be identical. Equal values may be shown once. Entries after “also recorded” stand apart in the source; their conditions may differ.", "data": [{"smiles": "C=CC(=O)N1CCC[C@@H](n2nc(-c3ccc(Oc4ccccc4)cc3)c3c(N)ncnc32)C1", "note": "[IRC-Ctrl, ibrutinib, reference compound]", "values": [{"measurement": "pIC50", "setting": "[1]", "value": 8.34}, {"measurement": "pIC50", "setting": "[2]; Homo sapiens, MOLM-14, 72 h, read-out: Cell viability IC50", "value": 6.48}, {"measurement": "Cell viability, MOML-14", "setting": "[2]; drug concentration 1.00E-05 M", "value": "2.829 and 3.671 and 10.6075 and 4.63 and 7.964"}, {"measurement": "Cell viability, MOML-14", "setting": "[2]; drug concentration 1.60E-08 M", "value": "78.5123 and 71.6258 and 103.431 and 81.3409"}, {"measurement": "Cell viability, MOML-14", "setting": "[2]; drug concentration 2.00E-06 M", "value": "11.3315 and 13.8066 and 22.1242 and 13.453 and 22.4778"}, {"measurement": "Cell viability, MOML-14", "setting": "[2]; drug concentration 3.20E-09 M", "value": "74.4713 and 69.3023 and 89.0692 and 86.5941 and 80.2465"}, {"measurement": "Cell viability, MOML-14", "setting": "[2]; drug concentration 4.00E-07 M", "value": "35.4256 and 44.6356 and 55.26 and 47.599 and 43.2718"}, {"measurement": "Cell viability, MOML-14", "setting": "[2]; drug concentration 6.40E-10 M", "value": "87.7559 and 71.8279 and 83.9002"}, {"measurement": "Cell viability, MOML-14", "setting": "[2]; drug concentration 8.00E-08 M", "value": "71.3059 and 57.3983 and 86.3921 and 79.7919 and 76.879"}, {"measurement": "pIC50", "setting": "[3]", "value": 5.42}, {"measurement": "pIC50", "setting": "[4]; Rec-1, triplicates", "value": 5.21}, {"measurement": "Cell Viability (%)", "setting": "[4]; 1.50E-05 M", "value": "8.535% and 9.796% and 10.5906%"}, {"measurement": "Cell Viability (%)", "setting": "[4]; 1.88E-06 M", "value": "74.3495% and 75.6404% and 76.9194%"}, {"measurement": "Cell Viability (%)", "setting": "[4]; 3.00E-05 M", "value": "2.364% and 2.247% and 2.265%"}, {"measurement": "Cell Viability (%)", "setting": "[4]; 3.75E-06 M", "value": 66.2063, "unit": "%"}, {"measurement": "Cell Viability (%)", "setting": "[4]; 4.69E-07 M", "value": "84.8624% and 81.0762% and 81.5842%"}, {"measurement": "Cell Viability (%)", "setting": "[4]; 7.50E-06 M", "value": "44.5947% and 45.7572% and 45.7871%"}, {"measurement": "Cell Viability (%)", "setting": "[4]; 9.38E-07 M", "value": "81.9548% and 81.1808% and 88.2512%"}, {"measurement": "pIC50", "setting": "[5]; Jeko-1, triplicates", "value": 6.52}, {"measurement": "Cell Viability (%)", "setting": "[5]; 1.50E-05 M", "value": "2.151% and 2.02% and 1.9313%"}, {"measurement": "Cell Viability (%)", "setting": "[5]; 1.88E-06 M", "value": "2.568% and 2.43% and 2.412%"}, {"measurement": "Cell Viability (%)", "setting": "[5]; 3.00E-05 M", "value": "2.333% and 2.338% and 2.111%"}, {"measurement": "Cell Viability (%)", "setting": "[5]; 3.75E-06 M", "value": "2.338% and 2.397% and 2.358%"}, {"measurement": "Cell Viability (%)", "setting": "[5]; 4.69E-07 M", "value": "5.039% and 20.4969% and 18.3979%"}, {"measurement": "Cell Viability (%)", "setting": "[5]; 7.50E-06 M", "value": "2.252% and 2.304% and 1.966%"}, {"measurement": "Cell Viability (%)", "setting": "[5]; 9.38E-07 M", "value": "2.5504% and 5.547% and 2.871%"}, {"measurement": "pIC50", "setting": "[6]", "value": 5.27}]}, {"smiles": "Nc1cccc2c1C(=O)N(C1CCC(=O)NC1=O)C2=O", "note": "(stereo not shown) [Pomalidomide, pomalidomide, reference compound]", "values": [{"measurement": "NanoBRET(%)", "setting": "[7]; drug concentration 1.00E-05 M", "value": "8.749% and 2.427%"}, {"measurement": "NanoBRET(%)", "setting": "[7]; drug concentration 1.60E-08 M", "value": "79.9835% and 62.224% and 75.9099%"}, {"measurement": "NanoBRET(%)", "setting": "[7]; drug concentration 2.00E-06 M", "value": "10.9943% and 16.7844%"}, {"measurement": "NanoBRET(%)", "setting": "[7]; drug concentration 3.20E-09 M", "value": "86.2914% and 88.5513% and 84.0314%"}, {"measurement": "NanoBRET(%)", "setting": "[7]; drug concentration 4.00E-07 M", "value": "54.7588% and 35.141% and 58.1892%"}, {"measurement": "NanoBRET(%)", "setting": "[7]; drug concentration 8.00E-08 M", "value": "88.9359% and 73.8405% and 79.0012%"}, {"measurement": "Fluorescence Intensity", "setting": "[8]; CRBN 0 μM", "value": "9876.2 and 9503.2 and 9587.2"}, {"measurement": "Fluorescence Intensity", "setting": "[8]; CRBN 0.734375 μM", "value": "7603.2 and 7913.2 and 7829.2"}, {"measurement": "Fluorescence Intensity", "setting": "[8]; CRBN 1.46875 μM", "value": "6654.2 and 6940.2 and 6542.2"}, {"measurement": "Fluorescence Intensity", "setting": "[8]; CRBN 2.9375 μM", "value": "5927.2 and 5996.2 and 5981.2"}, {"measurement": "Fluorescence Intensity", "setting": "[8]; CRBN 5.875 μM", "value": "5201.2 and 5168.2 and 5152.2"}, {"measurement": "Fluorescence Intensity", "setting": "[8]; CRBN 11.75 μM", "value": "4654.2 and 4688.2 and 4502.2"}, {"measurement": "Fluorescence Intensity", "setting": "[8]; CRBN 23.5 μM", "value": "4529.2 and 4338.2 and 4613.2"}, {"measurement": "pKd", "setting": "[8]; truncated Cereblon protein, fluorescence quenching, triplicates", "value": 5.85}, {"measurement": "Quantification anti-BTK / anti-β-actin (BTK level vs DMSO)", "setting": "[9]; Figure 2d, DMSO = 100 (mean)", "value": 81.7787}, {"measurement": "BTK degradation (in words)", "setting": "[9]; MOLM-14 cells, 200 nM, 24 h (Fig. 2d)", "value": "Neither RC-Ctrl, nor pomalidomide, nor a combination of both caused BTK degradation; also recorded: neither the RC-1 warhead, nor pomalidomide, nor a combination of both caused BTK degradation"}]}]}
